# Entries after “also recorded” stand apart in the source; their conditions may differ.
# T1: Apaf-1 (endogenous, in 293 cellular S100 extract, with cytochrome c plus dATP)
# T1 chain: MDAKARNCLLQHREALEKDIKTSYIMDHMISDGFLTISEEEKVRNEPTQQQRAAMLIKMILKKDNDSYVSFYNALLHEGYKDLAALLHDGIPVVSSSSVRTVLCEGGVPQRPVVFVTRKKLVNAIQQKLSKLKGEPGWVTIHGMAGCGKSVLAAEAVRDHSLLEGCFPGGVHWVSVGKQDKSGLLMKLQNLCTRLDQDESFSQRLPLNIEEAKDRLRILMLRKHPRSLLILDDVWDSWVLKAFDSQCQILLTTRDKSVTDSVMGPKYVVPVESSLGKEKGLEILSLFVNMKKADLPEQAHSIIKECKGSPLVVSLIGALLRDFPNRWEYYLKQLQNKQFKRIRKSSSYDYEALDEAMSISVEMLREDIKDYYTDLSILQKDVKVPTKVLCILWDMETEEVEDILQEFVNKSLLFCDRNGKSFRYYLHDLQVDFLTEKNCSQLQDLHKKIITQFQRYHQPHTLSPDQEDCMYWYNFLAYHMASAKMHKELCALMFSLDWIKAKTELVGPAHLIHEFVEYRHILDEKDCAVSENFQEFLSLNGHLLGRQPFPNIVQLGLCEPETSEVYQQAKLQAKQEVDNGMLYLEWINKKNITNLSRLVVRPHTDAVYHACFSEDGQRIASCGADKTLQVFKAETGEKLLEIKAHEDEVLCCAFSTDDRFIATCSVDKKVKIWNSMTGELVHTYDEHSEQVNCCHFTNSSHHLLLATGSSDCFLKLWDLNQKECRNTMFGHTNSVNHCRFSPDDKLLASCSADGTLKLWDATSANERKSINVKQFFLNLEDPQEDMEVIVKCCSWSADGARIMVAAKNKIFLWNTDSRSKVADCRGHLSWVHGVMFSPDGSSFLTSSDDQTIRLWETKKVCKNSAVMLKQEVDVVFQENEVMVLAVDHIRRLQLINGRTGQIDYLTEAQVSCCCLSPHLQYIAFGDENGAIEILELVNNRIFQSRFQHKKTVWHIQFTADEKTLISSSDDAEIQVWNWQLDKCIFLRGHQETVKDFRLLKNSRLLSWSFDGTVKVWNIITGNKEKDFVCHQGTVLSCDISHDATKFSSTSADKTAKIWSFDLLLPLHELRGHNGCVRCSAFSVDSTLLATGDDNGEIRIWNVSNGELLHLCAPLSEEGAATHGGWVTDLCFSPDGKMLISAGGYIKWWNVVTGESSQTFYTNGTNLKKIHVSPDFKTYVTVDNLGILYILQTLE
# T2: recombinant Apaf-530 (Ni2+-affinity purified, bacterially expressed, C-terminal His6 tag)
# T2 chain: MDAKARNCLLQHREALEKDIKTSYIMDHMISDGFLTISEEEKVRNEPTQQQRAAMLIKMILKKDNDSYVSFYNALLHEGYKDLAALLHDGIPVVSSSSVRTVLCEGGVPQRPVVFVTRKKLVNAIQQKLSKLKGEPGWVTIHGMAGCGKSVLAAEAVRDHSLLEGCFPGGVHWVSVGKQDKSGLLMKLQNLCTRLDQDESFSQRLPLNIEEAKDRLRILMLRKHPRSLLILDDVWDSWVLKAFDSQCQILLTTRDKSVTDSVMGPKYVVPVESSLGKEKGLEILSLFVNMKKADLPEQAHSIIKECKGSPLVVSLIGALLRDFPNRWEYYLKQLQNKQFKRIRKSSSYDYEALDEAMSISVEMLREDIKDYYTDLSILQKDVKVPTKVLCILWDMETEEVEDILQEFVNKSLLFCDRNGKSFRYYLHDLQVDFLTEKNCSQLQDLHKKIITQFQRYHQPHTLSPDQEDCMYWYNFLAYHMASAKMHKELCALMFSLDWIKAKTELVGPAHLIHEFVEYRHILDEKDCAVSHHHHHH
# T3: T7-tagged Apaf-530 (human, UniProt O14727 1-541)
# T3 construct: Expressed in co-transfected 293 cells; also called T7-Apaf-530
# T3 sequence: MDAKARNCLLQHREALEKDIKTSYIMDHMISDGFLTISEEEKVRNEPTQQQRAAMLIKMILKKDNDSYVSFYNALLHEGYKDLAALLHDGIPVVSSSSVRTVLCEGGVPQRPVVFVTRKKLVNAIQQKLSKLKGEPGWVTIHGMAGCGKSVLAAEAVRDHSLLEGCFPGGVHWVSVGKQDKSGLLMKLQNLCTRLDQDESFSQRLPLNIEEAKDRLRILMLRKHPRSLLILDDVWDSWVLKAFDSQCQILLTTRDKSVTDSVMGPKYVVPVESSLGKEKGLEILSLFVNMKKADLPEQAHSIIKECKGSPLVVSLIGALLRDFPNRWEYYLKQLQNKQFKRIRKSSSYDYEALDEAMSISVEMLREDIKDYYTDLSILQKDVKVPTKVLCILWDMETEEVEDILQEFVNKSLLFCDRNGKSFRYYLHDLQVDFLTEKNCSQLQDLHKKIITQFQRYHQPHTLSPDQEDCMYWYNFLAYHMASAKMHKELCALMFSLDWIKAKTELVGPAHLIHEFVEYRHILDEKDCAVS
# B1: purified recombinant procaspase-9-C287A mutant (protein)
# chain: MDEADRRLLRRCRLRLVEELQVDQLWDALLSRELFRPHMIEDIQRAGSGSRRDQARQLIIDLETRGSQALPLFISCLEDTGQDMLASFLRTNRQAAKLSKPTLENLTPVVLRPEIRKPEVLRPETPRPVDIGSGGFGDVGALESLRGNADLAYILSMEPCGHCLIINNVNFCRESGLRTRTGSNIDCEKLRRRFSSLHFMVEVKGDLTAKKMVLALLELAQQDHGALDCCVVVILSHGCQASHLQFPGAVYGTDGCPVSVEKIVNIFNGTSCPSLGGKPKLFFIQAAGGEQKDHGFEVASTSPEDESPGSNPEPDATPFQEGLRTFDQLDAISSLPTPSDIFVSYSTFPGFVSWRDPKSGSWYVETLDDIFEQWAHSEDLQSLLLRVANAVSVKGIYKQMPGCFNFLRKKLFFKTS
# B2: Flag-tagged Apaf-97 (other, not shown: small tags and cut ends)
# chain: MDAKARNCLLQHREALEKDIKTSYIMDHMISDGFLTISEEEKVRNEPTQQQRAAMLIKMILKKDNDSYVSFYNALLHEGYKDLAALLHDGIPVVSSS
# notes: Expressed in co-transfected 293 cells; also called Flag-Apaf-97
# Tests used:
# procaspase-9 = experiment: Cytochrome c/dATP-dependent processing of procaspase-9 in 293 cellular S100 extract; format: biochemical; conditions: 293 S100 extract, cytochrome c plus dATP
# Protocol: To study processing of procaspase-9 in the cytochrome c/Apaf-1-dependent pathway, WT and the Asp to Ala mutants of procaspase-9 were incubated with a cellular S100 extract in the presence or absence of cytochrome c and dATP. […] Samples were then analyzed by SDS-PAGE and autoradiography.
# (§1) To confirm this, a time course analysis of procaspase-9 and procaspase-3 processing was performed in cellular S100 extracts from 293 and MCF-7 cells. […] At the indicated times the reactions were stopped and then analyzed by SDS-PAGE and autoradiography (procaspase-9 panels) or Western blot analysis using anti-caspase-3 p20 polyclonal antibody (procaspase-3 panels). Small arrows indicate a non-specific band detected by the anti-caspase-3 antibody.
# (§2) In FIG. 18, 293 cellular S100 extracts supplemented with ^35S-labeled procaspase-9 (upper panel) or procaspase-3 (lower panel) were incubated with (lanes 3-7) or without (lane 2) cytochrome c plus dATP in the presence of increasing amounts of purified recombinant procaspase-9-C287A mutant for 1 hour at 30° C. and then analyzed by SDS-PAGE and autoradiography. […] Consequently, the Apaf-1/caspase-9 pathway appears to be a central apoptotic pathway, on which most apoptotic signals converge.
# procaspase-3 = experiment: Cytochrome c/dATP-dependent processing of procaspase-3 in 293 cellular S100 extract; format: biochemical; conditions: cytochrome c/dATP
# Protocol: as §1
# (§3) In FIG. 8, ^35S-labeled procaspase-3, -6 or -7 were incubated with S100 extracts from 293 cells in the presence or absence of cytochrome c/dATP or DEVD-CHO, or both and analyzed by SDS-PAGE followed by autoradiography. However, when DEVD-CHO was included, processing of procaspase-6 (lane 6), but not procaspase-3 (lane 3) or -7 (lane 9) was inhibited. […] Also, since caspase-7 cannot process procaspase-6 (Srinivasula et al., J. Biol. Chem. 271:27099-27106, 1996), caspase-3 is the one responsible for processing of procaspase-6 in the cytochrome c plus dATP-dependent pathway.
# as §2
# procaspase-6 = experiment: Cytochrome c/dATP-dependent processing of procaspase-6 in 293 cellular S100 extract; format: biochemical; conditions: 35S-labeled procaspase-6, 293 S100 extract, FIG. 8
# Protocol: as §3
# procaspase-7 = experiment: Cytochrome c/dATP-dependent processing of procaspase-7 in 293 cellular S100 extract; format: biochemical; conditions: 35S-labeled procaspase-7, 293 S100 extract, FIG. 8
# Protocol: as §3
# [1] = target: T1, Apaf-1 (endogenous, in 293 cellular …)
# [2] = target: T2, recombinant Apaf-530 (Ni2+-affinity …)
# T7-tagged Apaf-530 = target: T3, T7-tagged Apaf-530; experiment: co-immunoprecipitation from co-transfected 293 cells: anti-Flag IP, anti-T7 immunoblot
# Protocol: (§4) The immunoprecipitates were analyzed by Western blotting with an anti-T7 antibody.
# (§5) After 36 hours, extracts were prepared and immunoprecipitated with a monoclonal antibody to the Flag epitope. The immunoprecipitates (upper panel) were analyzed by SDS-PAGE and immunoblotted with a horseradish peroxides-conjugated T7 antibody.
# (§6) In vivo interaction experiments between Apaf-1 variants and Bcl-x_L were performed. […] After 36 hours, extracts were prepared and immunoprecipitated with a monoclonal antibody to the Flag epitope. The immunoprecipitates (FIG. 16, upper panel) were analyzed by SDS-PAGE and immunoblotted with a horseradish peroxidase-conjugated T7 antibody.
# T7-tagged Bcl-xL = target: T4, T7-tagged Bcl-xL (UniProt Q07817 1-233); experiment: as above
# T4 construct: Expressed in co-transfected 293 cells
# T4 sequence (Q07817 whole entry): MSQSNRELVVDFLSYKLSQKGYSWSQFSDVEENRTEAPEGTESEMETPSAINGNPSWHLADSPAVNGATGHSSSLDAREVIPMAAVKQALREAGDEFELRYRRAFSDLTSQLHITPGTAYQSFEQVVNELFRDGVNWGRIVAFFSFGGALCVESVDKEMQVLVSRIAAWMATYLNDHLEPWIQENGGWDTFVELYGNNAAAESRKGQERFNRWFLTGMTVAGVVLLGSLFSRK
# Protocol: as §4, §5, §6
# [3] = 293 S100 extract, Western blot, FIG. 5
molecule,measurement,setting,value
Asp-Glu-Val-Asp-aldehyde [DEVD-CHO],inhibition of procaspase-9 processing at Asp315 (autocatalytic generation of p35 fragment),procaspase-9,not and did not block
same,inhibition of procaspase-9 processing at Asp330 (generation of p37 fragment),procaspase-9,sensitive to inhibition; also recorded: blocked
same,inhibition of processing of procaspase-3,"procaspase-3; 35S-labeled procaspase-3, 293 S100 extract, FIG. 8",not
same,effect on processing of procaspase-3,procaspase-3; [3],slightly attenuated
same,inhibition of autoconversion of caspase-3-p20 to p19,procaspase-3; [3],blocked
same,inhibition of processing of procaspase-6,procaspase-6,inhibited
same,inhibition of processing of procaspase-7,procaspase-7,not
B1,cytochrome c/dATP-induced activation of procaspase-9 and procaspase-3 in the 293 S100 extract,[1],able to attenuate cytochrome c/dATP-induced activation of procaspase-9 and procaspase-3 in the 293 S100 extract in a dose-dependent manner
same,Apaf-530-induced activation of procaspase-9 in the in vitro reconstituted system,[2],A similar result was also obtained with the Apaf-530-induced activation of procaspase-9 in the in vitro reconstituted system (data not shown)
B2,binding result,T7-tagged Apaf-530,no binding
same,binding result,T7-tagged Bcl-xL,no binding
